One assay concerns Human PBMCs. The assay is described as follows: CD3/CD28 mediated PBMC proliferation assay. It counts as cell-based. As to conditions: proliferation of human PBMCs stimulated with anti-CD3 and anti-CD28, 72 hours, Cell Titer-Glo. Here is the method:
Inhibition of cellular ITK was assessed by measuring proliferation of PBMCs following stimulation with anti-CD3 and anti-CD28 antibodies. Individual wells of 96 well tissue culture plates were coated with 50 μL of 5 μg/mL anti-CD3 (OKT3, eBiosciences) for 2 hours at 37° C. Human PBMCs (Stemcell Technologies catalog #70025.3) were plated in 96-well plates at a final concentration of 9.2×10e5 cells/mL in complete media (RPMI, 10% heat inactivated FBS, 55 uM β-mercaptoethanol) and pre-treated with compound curves for 30 minutes at 37° C., 5% CO2. Pre-treated cells plus compounds were transferred to washed anti-CD3 coated plates. Soluble anti-CD28 (CD28.2 eBiosciences) was added to each well at a final concentration of 2 μg/mL. The cells were placed in a humidified 37° C. incubator with 5% CO2 for 72 hours and metabolic viability was measured by quantification of ATP levels with Cell Titer-Glo (Promega catalog # G9242). Controls included unstimulated cells and vehicle alone. EC50 values (50% proliferation in the presence of compound as compared to vehicle treated controls) were calculated from dose response compound curves using GraphPad Prism Software.
(In ATP-based viability assays light output follows the ATP content of the culture.)

In a further assay the target is RLK/TXK (Homo sapiens (Human), UniProt P42681). The assay is described as follows: RLK/TXK kinase inhibition assay. The assay is classed as biochemical. The settings on record: micro-fluidic detection, 3 hours at 25° C. The procedure:
(§1) The in vitro kinase assays were performed at Nanosyn utilizing micro-fluidic detection technology. The test compounds were serially pre-diluted in DMSO and added, by the acoustic dispensing (Labcyte® 550), directly to 384well assay plates into 10 uL of a buffer with enzyme comprising: 100 mM HEPES, pH7.5, 5 mM MgCl2, 0.1% bovine serum albumin, 1 mM DTT, 0.01% Triton X-100 and the enzyme. Final DMSO concentration was maintained at 1% in all samples, including the controls. The reactions were initiated by addition of ATP (to the specified concentration) and the fluorescently labeled peptide substrate to a final concentration of 1 uM, and incubated for 3 hours at 25° C. Following incubation, the reactions were quenched by addition of 40 μL of termination buffer (100 mM HEPES, pH7.5, 0.01% Triton X-100, 50 mM EDTA). Terminated plates were analyzed using Caliper LabChip® 3000 microfluidic electrophoresis instrument (Caliper Life Sciences/Perkin Elmer). The enzymatic modification of the peptide substrate (phosphorylation) results in a change of net charge enabling electrophoretic separation of product from substrate. As substrate and product are separated by electrophoresis, two peaks of fluorescence are observed. Change in the relative fluorescence intensity of the substrate and product peaks was the parameter measured, reflecting enzyme activity. In the presence of inhibitor, the ratio between product and substrate is altered: signal of the product decreases, while the signal of the substrate increases. Activity in each test sample was determined as the product to sum ratio (PSR): P/(S+P), where P is the peak height of the product and S is the peak height of the […]. For each compound, enzyme activity was measured at 12 concentrations spaced by 3× dilution intervals. Negative control samples (0%-inhibition in the absence of inhibitor, DMSO only) and positive control samples (100%-inhibition, in the absence of enzyme or in the presence of control inhibitor) were assembled in replicates of four and were used to calculate %-inhibition values in the presence of compounds. Percent inhibition (Pinh) was determined using the following equation: Pinh=(PSR0%−PSRinh)/(PSR0%−PSR100%)*100, where PSRinh is the product sum ratio in the presence of inhibitor, PSR0% is the product sum ratio in the absence of inhibitor and PSR100% is the product sum ratio in 100%-inhibition control samples. To determine IC50 values, the inhibition curves (Pinh versus inhibitor concentration) were fitted by 4 parameter sigmoid dose-response model using XLfit software (IDBS).

Another assay concerns the target ITK (Homo sapiens (Human), UniProt Q08881). Briefly: ITK kinase inhibition assay. It counts as biochemical. As to conditions: micro-fluidic detection, 3 hours at 25° C. Here is the method: as §1, with “384 well” for “384well”, “(PSR):P/(S+P),” for “(PSR): P/(S+P),”
For assay [1], the system named is Jurkat human acute T cell leukemia cells. The assay is described as follows: Jurkat IL-2 release assay. It counts as cell-based. The settings on record: IL-2 release from Jurkat cells stimulated with anti-CD3 and anti-CD28, 48 hours, ELISA. The procedure: Inhibition of cellular ITK was assessed by measuring release of IL-2 following stimulation with anti-CD3 and anti-CD28 antibodies. Individual wells of 96 well tissue culture plates were coated with 50 μL of 10 μg/mL anti-CD3 (OKT3, eBiosciences) for 2 hours at 37° C. Jurkat human acute T cell leukemia cells (ATCC) were plated in 96-well plates at a final concentration of 9.2×10e5 cells/mL in complete media (RPMI, 10% FBS, 1.5 g/L sodium bicarbonate, 10 mM Hepes, 1 mM sodium pyruvate, 4.5 g/L glucose) and pre-treated with compound curves for 30 minutes at 37° C., 5% CO2. Pre-treated cells plus compounds were transferred to washed anti-CD3 coated plates. Soluble anti-CD28 (CD28.2 eBiosciences) was added to each well at a final concentration of 1 μg/mL. The cells were placed in a humidified 37° C. incubator with 5% CO2 for 48 hours and IL-2 release was measured using a commercial ELISA (BD Bioscience catalog #555190). Controls included unstimulated cells and vehicle alone. EC50 values (50% IL-2 release in the presence of compound as compared to vehicle treated controls) were calculated from dose response compound curves using GraphPad Prism Software.

RLK/TXK, sequence (P42681 whole entry): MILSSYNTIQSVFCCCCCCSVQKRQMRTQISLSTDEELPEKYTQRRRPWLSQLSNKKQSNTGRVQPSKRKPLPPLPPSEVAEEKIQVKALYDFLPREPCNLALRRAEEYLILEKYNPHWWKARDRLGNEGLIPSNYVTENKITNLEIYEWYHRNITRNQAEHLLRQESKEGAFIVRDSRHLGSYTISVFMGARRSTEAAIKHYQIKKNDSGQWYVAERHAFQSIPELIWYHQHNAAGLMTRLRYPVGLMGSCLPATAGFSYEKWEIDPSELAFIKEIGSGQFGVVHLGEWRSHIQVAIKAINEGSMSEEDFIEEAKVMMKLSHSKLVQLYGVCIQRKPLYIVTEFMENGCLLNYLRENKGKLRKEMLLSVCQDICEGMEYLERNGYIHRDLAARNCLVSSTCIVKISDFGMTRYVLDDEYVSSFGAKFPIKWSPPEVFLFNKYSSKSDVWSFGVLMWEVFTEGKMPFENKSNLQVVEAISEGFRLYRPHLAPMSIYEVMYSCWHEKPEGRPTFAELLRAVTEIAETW
ITK, sequence (Q08881 whole entry): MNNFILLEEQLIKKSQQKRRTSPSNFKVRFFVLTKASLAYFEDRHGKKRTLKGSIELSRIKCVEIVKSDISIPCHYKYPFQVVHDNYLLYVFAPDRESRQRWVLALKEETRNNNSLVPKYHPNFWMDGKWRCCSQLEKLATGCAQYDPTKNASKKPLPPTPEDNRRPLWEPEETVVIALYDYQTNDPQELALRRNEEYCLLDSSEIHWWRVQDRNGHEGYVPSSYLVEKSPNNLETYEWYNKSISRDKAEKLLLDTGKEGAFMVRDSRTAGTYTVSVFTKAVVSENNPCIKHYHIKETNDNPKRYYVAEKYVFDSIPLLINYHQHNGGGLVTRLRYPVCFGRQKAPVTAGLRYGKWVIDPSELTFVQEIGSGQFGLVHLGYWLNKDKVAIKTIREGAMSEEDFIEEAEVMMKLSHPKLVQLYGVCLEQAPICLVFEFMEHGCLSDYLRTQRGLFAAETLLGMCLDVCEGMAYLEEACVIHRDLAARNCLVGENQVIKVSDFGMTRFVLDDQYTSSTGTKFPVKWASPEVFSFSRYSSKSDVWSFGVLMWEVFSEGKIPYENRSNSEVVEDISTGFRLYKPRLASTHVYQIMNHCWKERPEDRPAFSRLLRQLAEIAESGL

Regarding `C=CC(=O)Nc1cccc(-n2c(NC(=O)c3cnco3)nc3cc(CN[C@@H](C)C(C)(C)C)ccc32)c1` [Compound 42], the EC50 (usually the midpoint of the concentration-response curve) was 10 to 100 nM in the assay on Human PBMCs, 10 to 100 nM on RLK/TXK, 10 to 100 nM on ITK and less than 10 nM in assay [1].

For `C=CC(=O)Nc1cccc(-n2c(NC(=O)c3nccs3)nc3cc(CN[C@@H](C)C(C)(C)C)ccc32)c1` [Compound 12], the EC50 is more than 100 nM in the assay on Human PBMCs, 10 to 100 nM at RLK/TXK, more than 100 nM on ITK and more than 100 nM in assay [1].

Turning to `C=CC(=O)Nc1cccc(-n2c(NC(=O)c3cccnc3)nc3cc(CN[C@@H](C)C(C)(C)C)ccc32)c1` [Compound 19], the EC50 in the assay on Human PBMCs was 10 to 100 nM; at RLK/TXK it was 10 to 100 nM; on ITK, less than 10 nM; in assay [1], less than 10 nM.

`C=CC(=O)N[C@H]1C[C@@H](n2c(NC(=O)c3ccc(C(F)F)s3)nc3cc(CN[C@@H](C)C(C)(C)C)ccc32)C1` [Compound 1]: the concentration for a half-maximal effect (EC50) with Human PBMCs is 10 to 100 nM; on RLK/TXK, 10 to 100 nM; at ITK, less than 10 nM; in assay [1], 10 to 100 nM.

On to `C=CC(=O)Nc1cccc(-n2c(NC(=O)c3ccc(C(F)F)s3)nc3cc(CN4CCOCC4)ccc32)c1` [Compound 50], for which the EC50 (in the assay with Human PBMCs; on RLK/TXK; on ITK; in assay [1]) was less than 10 nM throughout.

For the molecule `C=CC(=O)N[C@H]1CC[C@@H](n2c(NC(=O)c3ccc(C(F)F)s3)nc3cc(CN[C@@H](C)C(C)(C)C)ccc32)C1` [Compound 62], the EC50 in the assay on Human PBMCs is more than 100 nM; at RLK/TXK it was 10 to 100 nM; at ITK, less than 10 nM; in assay [1] it was 10 to 100 nM.

For `C=CC(=O)Nc1cccc(-n2c(NC(=O)c3cncs3)nc3cc(CN[C@@H](C)C(C)(C)C)ccc32)c1` [Compound 17], the half-maximal effective concentration (EC50) in the assay with Human PBMCs was 10 to 100 nM; at RLK/TXK it was less than 10 nM; at ITK, 10 to 100 nM; in assay [1], 10 to 100 nM.

For the molecule `C=CC(=O)Nc1cccc(-n2c(NC(=O)c3ccncc3)nc3cc(CN[C@@H](C)C(C)(C)C)ccc32)c1` [Compound 16], the EC50 in the assay with Human PBMCs is 10 to 100 nM; at RLK/TXK it was less than 10 nM; at ITK, less than 10 nM; in assay [1], 10 to 100 nM.

As to `C=CC(=O)Nc1cccc(-n2c(NC(=O)c3ccccn3)nc3cc(CN[C@@H](C)C(C)(C)C)ccc32)c1` [Compound 27], the EC50 (in the assay on Human PBMCs; at RLK/TXK; at ITK; in assay [1]) was more than 100 nM each time.

For the molecule `C=CC(=O)N[C@H]1CC[C@@H](n2c(NC(=O)c3ccc(C(F)F)s3)nc3cc(CN[C@@H](C)C(C)(C)C)ccc32)CC1` [Compound 3], the EC50 was more than 100 nM in the assay with Human PBMCs, 10 to 100 nM on RLK/TXK, 10 to 100 nM on ITK and 10 to 100 nM in assay [1].

Take `C=CC(=O)Nc1cccc(-n2c(NC(=O)c3ccc(C(F)F)s3)nc3cc(CN[C@H]4CC[C@H](O)CC4)ccc32)c1` [Compound 31]: the EC50 (in the assay on Human PBMCs; at RLK/TXK; at ITK; in assay [1]) was less than 10 nM in each case.

With `C=CC(=O)N[C@@H]1CC[C@H](n2c(NC(=O)c3ccc(C(F)F)s3)nc3cc(CN[C@@H](C)C(C)(C)C)ccc32)C1` [Compound 18], the EC50 is 10 to 100 nM in the assay on Human PBMCs, less than 10 nM on RLK/TXK, less than 10 nM on ITK and less than 10 nM in assay [1].

As for `C=CC(=O)Nc1cccc(-n2c(NC(=O)c3ccc(C(F)F)s3)nc3cc(N(C)C(=O)[C@H](C)N4CCOCC4)ccc32)c1` [Compound 77], the concentration for a half-maximal effect (EC50) in the assay with Human PBMCs is 10 to 100 nM; at RLK/TXK it was less than 10 nM; on ITK it was less than 10 nM; in assay [1], less than 10 nM.

On to `C=CC(=O)N[C@@H]1CCC[C@H](n2c(NC(=O)c3ccc(C(F)F)s3)nc3cc(CN[C@@H](C)C(C)(C)C)ccc32)C1` [Compound 81], for which the concentration for a half-maximal effect (EC50) in the assay with Human PBMCs is 10 to 100 nM; at RLK/TXK it was 10 to 100 nM; on ITK, less than 10 nM; in assay [1], less than 10 nM.

In the case of `C=CC(=O)Nc1cccc(-n2c(NC(=O)c3ccns3)nc3cc(CN[C@@H](C)C(C)(C)C)ccc32)c1` [Compound 43], the EC50 (with Human PBMCs; on RLK/TXK; on ITK; in assay [1]) was less than 10 nM in each case.

The values are drawn from patent US10562893B2, “Benzimidazoles derivatives as Tec kinases family inhibitors” (GB005, Inc., priority 2015, dated 2020).
